Experimental findings from patent US9232799B2, “N-[(het)arylethyl)] pyrazole(thio)carboxamides and their heterosubstituted analogues” (BAYER INTELLECTUAL PROPERTY GMBH, priority 2010, dated 2016) are described below.

One data set concerns Botrytis cinerea. Nature of the data set: In vivo preventive test on Botrytis cinerea (beans). Particulars: preventive, beans, lesion size 2 days after inoculation; for pest or weed control at 500 ppm: 500 ppm of active ingredient. An excerpt:
To test for preventive activity, young plants are sprayed with the preparation of active compound. After the spray coating has dried on, 2 small pieces of agar covered with growth of Botrytis cinerea are placed on each leaf.

The next data set deals with Puccinia triticina. As to the kind of experiment: In vivo preventive test on Puccinia triticina (wheat). Particulars: dose 500 ppm of active ingredient, evaluated 8 days after inoculation.
Data set [1] is described as follows: logP by HPLC on reversed-phase column (C 18), EEC Directive 79/831 Annex V.A8. The class given is physicochemical. On the procedure:
In table 1, the logP values were determined in accordance with EEC Directive 79/831 Annex V.A8 by HPLC (High Performance Liquid Chromatography) on a reversed-phase column (C 18), using the method described below: Temperature: 40° C.; […]

Another data set deals with Sphaerotheca fuliginea. Nature of the data set: In vivo preventive test on Sphaerotheca fuliginea (cucumber). Particulars: 500 ppm of active ingredient, evaluated 7 days after inoculation. An excerpt: One day after this treatment, the plants are inoculated with an aqueous spore suspension of Sphaerotheca fuliginea.
For another data set, the system named is Alternaria solani. Nature of the data set: In vivo preventive test on Alternaria solani (tomato). To be noted: 500 ppm of active ingredient, evaluated 7 days after inoculation. An excerpt:
One day after this treatment, the plants are inoculated with an aqueous spore suspension of Alternaria solani.

A further data set relates to Pyrenophora teres. Nature of the data set: In vivo preventive test on Pyrenophora teres (barley). Particulars: 500 ppm of active ingredient, evaluated 7-9 days after inoculation. An excerpt: One day after this treatment, the plants are inoculated with an aqueous spore suspension of Pyrenophora teres.
A further data set deals with Venturia inaequalis. Nature of the data set: In vivo preventive test on Venturia inaequalis (apple scab). Particulars: 100 ppm of active ingredient, evaluated 10 days after inoculation.
For the next data set, the system named is Septoria tritici. Nature of the data set: In vivo preventive test on Septoria tritici (wheat). To be noted: 500 ppm of active ingredient, evaluated 21 days after inoculation. An excerpt: (§1) To test for preventive activity, young plants are sprayed with the preparation of active compound or active compound combination at the stated rate of application.
In data set [2] the test system is Blumeria graminis f.sp. hordei. Nature of the data set: In vivo preventive test on Blumeria graminis (barley). To be noted: 500 ppm of active ingredient, evaluated 7 days after inoculation.
Excerpt: as §1

For data set [3], the system named is Fusarium nivale (var. majus). As to the kind of experiment: In vivo preventive test on Fusarium nivale (wheat). To be noted: 500 ppm of active ingredient, evaluated 5 days after inoculation.
Excerpt: as §1

Another data set has as its system Leptosphaeria nodorum. Nature of the data set: In vivo preventive test on Leptosphaeria nodorum (wheat). Particulars: 500 ppm of active ingredient, evaluated 7-9 days after inoculation. An excerpt:
One day after this treatment, the plants are inoculated with an aqueous spore suspension of Leptosphaeria nodorum.

The test system of a further data set is aflatoxines production. Nature of the data set: microbe, parasite or virus in culture. The class given is cell-based, Aspergillus parasiticus. To be noted: for inhibition at 50 µM: Aspergillus parasiticus, 168 h, read-out: % Inhibition of Aflatoxin at 50 μM.
Another data set deals with Fusarium graminearum. Nature of the data set: microbe, parasite or virus in culture. The class given is cell-based. Particulars: for inhibition at 50 µM: Fusarium graminearum, 168 h, read-out: % Inhibition of fungal growth at 50 μM.
Where [4] appears, read: Botrytis cinerea, 48 h, read-out: Efficacy.

Turning to `Cc1nn(C)c(F)c1C(=O)N(C(C)Cc1ncc(C(F)(F)F)cc1Cl)C1CC1` (stereo not shown) [compound CMP5, N-{1-[3-chloro-5-(trifluoromethyl)pyridin-2-yl]propan-2-yl}-N-cyclopropyl-5-fluoro-1,3-dimethyl-1H-pyrazole-4-carboxamide, reference compound], in the data set with Botrytis cinerea (setting [4]), the pest or weed control at 500 ppm is 0%. This compound came in with an Efficacy with Puccinia triticina of 11%.

In [1], `Cn1nc(C(F)F)c(C(=O)N(C2CC2)C2CCCC2c2ccccc2Cl)c1F` (stereo not shown) [Example 210] displayed a logP of 4.31. In addition, the Efficacy (in the data set on Sphaerotheca fuliginea; in the data set on Alternaria solani; with Pyrenophora teres; in the data set on Venturia inaequalis; with Septoria tritici; in data set [2]) was 100% in each case. Besides, the figures for the Efficacy (in data set [3]; in the data set with Leptosphaeria nodorum; in the data set with Botrytis cinerea (100 ppm of active ingredient)) were 86%, 90% and 100%, respectively. In addition, the “% Inhibition of Aflatoxin at 50 μM” value in the data set on aflatoxines production amounted to 100%. In addition, the “% Inhibition of fungal growth at 50 μM” value in the data set on Fusarium graminearum was determined as 100%.

Regarding `Cn1nc(C(F)F)c(C(=O)NC(C)(C)C(=O)c2ncc(C(F)(F)F)cc2Cl)c1F` [Example 194, N-{1-[3-chloro-5-(trifluoromethyl)pyridin-2-yl]-2-methyl-1-oxopropan-2-yl}-3-(difluoromethyl)-5-fluoro-1-methyl-1H-pyrazole-4-carboxamide], the chromatographic logP in data set [1] stood at 3.23. The Efficacy with Sphaerotheca fuliginea is recorded as 98%; in the data set on Alternaria solani, 100%; in the data set with Pyrenophora teres, 100%; with Septoria tritici, 100%; in data set [2], 100%; in data set [3] it was 100%. In the data set on Leptosphaeria nodorum, the Efficacy came to 90%. The inhibition at 50 µM in the data set on aflatoxines production and in the data set with Fusarium graminearum was 100% each time.

In turn, `Cn1nc(C(F)F)c(C(=O)NCC(C)(C)c2ccc(Cl)cc2Cl)c1Cl` [Example 88] gave a logP in data set [1] of 4.03. The Efficacy is 94% in the data set with Sphaerotheca fuliginea; 100% with Alternaria solani; 100% in the data set with Pyrenophora teres; 90% with Septoria tritici; 80% in data set [2]; 88% in data set [3]. This compound came in with an Efficacy with Leptosphaeria nodorum of 90%. Also, the “% Inhibition of Aflatoxin at 50 μM” value in the data set on aflatoxines production came to 100%. In the data set with Fusarium graminearum, the “% Inhibition of fungal growth at 50 μM” value is given as 86%.

`Cn1nc(C(F)F)c(C(=O)N(CC(F)(F)c2cc(Cl)ccc2Cl)C2CC2)c1F` [Example 99] registered a logP in data set [1] of 3.85. In addition, the Efficacy amounted to 98% with Sphaerotheca fuliginea; 95% with Alternaria solani; 100% in the data set with Pyrenophora teres; 100% with Septoria tritici; 89% in [2]; 92% in data set [3]. The Efficacy with Leptosphaeria nodorum is on record as 95%.

The compound `Cn1nc(C(F)F)c(C(=O)N(CC(F)(F)c2ccccc2Cl)C2CC2)c1F` [Example 44] returned a logP in data set [1] of 3.39. Also, the Efficacy (in the data set on Sphaerotheca fuliginea; in the data set on Alternaria solani; with Pyrenophora teres; in the data set with Venturia inaequalis; with Septoria tritici; in data set [2]) was 100% each time. Moreover, the Efficacy in data set [3] amounted to 100%; with Leptosphaeria nodorum it was 100%; in the data set with Botrytis cinerea (100 ppm of active ingredient), 99%. Besides, the “% Inhibition of Aflatoxin at 50 μM” value in the data set on aflatoxines production stood at 100%. In addition, in the data set on Fusarium graminearum, the “% Inhibition of fungal growth at 50 μM” value turned out to be 100%.

Compound `Cn1nc(C(F)F)c(C(=O)N(CC(F)(F)c2ccc(Cl)cc2Cl)C2CC2)c1F` [Example 86] gave a lipophilicity (logP) in [1] of 3.94. The Efficacy amounted to 100% in the data set on Sphaerotheca fuliginea; 100% in the data set with Alternaria solani; 100% with Pyrenophora teres; 100% in the data set with Venturia inaequalis; 80% with Septoria tritici; 100% in data set [2]. In addition, the Efficacy in data set [3] worked out at 93%; with Leptosphaeria nodorum it was 100%; in the data set with Botrytis cinerea (100 ppm of active ingredient), 100%. The “% Inhibition of Aflatoxin at 50 μM” value in the data set on aflatoxines production was 100%. Moreover, the “% Inhibition of fungal growth at 50 μM” value in the data set on Fusarium graminearum was 98%.

In data set [1], `Cn1nc(C(F)F)c(C(=O)NC(C)(C)C(=O)c2ccc3ccccc3c2)c1F` [Example 160] came in with a logP of 2.92. Moreover, the Efficacy with Sphaerotheca fuliginea was 95%; in the data set on Alternaria solani, 95%; in the data set with Pyrenophora teres, 100%; in the data set with Venturia inaequalis, 100%; in the data set on Septoria tritici it was 70%; in data set [2] it was 70%. In addition, the Efficacy in data set [3] came out at 83%; with Leptosphaeria nodorum, 70%; with Botrytis cinerea (100 ppm of active ingredient), 100%. The “% Inhibition of Aflatoxin at 50 μM” value in the data set with aflatoxines production is reported as 100%. Further, the “% Inhibition of fungal growth at 50 μM” value with Fusarium graminearum came to 100%.

On to `CC(Cc1ncc(C(F)(F)F)cc1Cl)NC(=O)c1c(C(F)F)nn(C)c1F` (stereo not shown) [Example 190, N-{1-[3-chloro-5-(trifluoromethyl)pyridin-2-yl]propan-2-yl}-3-(difluoromethyl)-5-fluoro-1-methyl-1H-pyrazole-4-carboxamide], for which the chromatographic logP in [1] stood at 3.08. In addition, the Efficacy (in the data set with Sphaerotheca fuliginea; with Alternaria solani; in the data set with Pyrenophora teres; with Venturia inaequalis; in the data set with Septoria tritici; in [2]) was 100% each time. Besides, the Efficacy in data set [3] turned out to be 88%. In the data set on Botrytis cinerea (Botrytis cinerea, 48 h, 100 ppm of active ingredient, read-out: Efficacy), the pest or weed control at 100 ppm stood at 96%. Moreover, the pest or weed control at 500 ppm with Botrytis cinerea (setting [4]) was found to be 100%. The inhibition at 50 µM in the data set on aflatoxines production and with Fusarium graminearum was 100% throughout.

For the compound `CC(Cc1ncc(C(F)(F)F)cc1Cl)N(C(=O)c1c(C(F)F)nn(C)c1Cl)C1CC1` (stereo not shown) [Example 189], the logP in [1] is 3.96. The Efficacy with Sphaerotheca fuliginea is listed as 95%; in the data set on Alternaria solani, 100%; in the data set on Pyrenophora teres it was 95%; in the data set with Septoria tritici, 70%; in data set [2] it was 100%; in [3], 100%. This compound had an Efficacy with Puccinia triticina of 80%. The “% Inhibition of Aflatoxin at 50 μM” value with aflatoxines production amounted to 100%. For the same compound, the “% Inhibition of fungal growth at 50 μM” value with Fusarium graminearum amounted to 90%.

`CC(Cc1ccc(Cl)cc1Cl)NC(=O)c1c(C(F)F)nn(C)c1F` (stereo not shown) [Example 67] returned a logP in data set [1] of 3.46. The Efficacy in the data set on Sphaerotheca fuliginea was 100%; with Alternaria solani, 100%; in the data set with Pyrenophora teres, 100%; in the data set on Venturia inaequalis, 100%; with Leptosphaeria nodorum, 90%; with Botrytis cinerea (100 ppm of active ingredient), 89%. Also, in the data set with aflatoxines production, the “% Inhibition of Aflatoxin at 50 μM” value is listed as 100%. For the same compound, the “% Inhibition of fungal growth at 50 μM” value in the data set with Fusarium graminearum is listed as 100%.

In the case of `Cn1nc(C(F)F)c(C(=O)NC[Si](C)(C)c2ccccc2Cl)c1F` [Example 233], the logP in data set [1] is given as 3.48. Also, the Efficacy in the data set on Alternaria solani worked out at 95%; in the data set with Pyrenophora teres, 100%; with Septoria tritici it was 90%; with Leptosphaeria nodorum, 80%; with Puccinia triticina, 95%. The “% Inhibition of Aflatoxin at 50 μM” value in the data set with aflatoxines production came out at 88%. The “% Inhibition of fungal growth at 50 μM” value in the data set with Fusarium graminearum is reported as 76%.

In the case of `CC(Cc1ncc(C(F)(F)F)cc1Cl)N(C(=O)c1cn(C)nc1C(F)F)C1CC1` (stereo not shown) [compound CMP4, N-{1-[3-chloro-5-(trifluoromethyl)pyridin-2-yl]propan-2-yl}-N-cyclopropyl-3-(difluoromethyl)-1-methyl-1H-pyrazole-4-carboxamide, reference compound], the pest or weed control at 500 ppm in the data set with Botrytis cinerea (setting [4]) was 0%. In addition, in the data set on Puccinia triticina, the Efficacy is reported as 11%.

In the case of `CC(Cc1ccc(Oc2ccccc2)cc1)NC(=O)c1c(C(F)F)nn(C)c1F` (stereo not shown) [Example 151], the logP in [1] was 3.63. Further, the Efficacy in the data set on Sphaerotheca fuliginea is 93%; in the data set with Alternaria solani, 95%; in the data set with Pyrenophora teres it was 100%; in the data set on Septoria tritici it was 100%; in data set [2], 100%; in [3], 100%. The compound also displayed an Efficacy with Leptosphaeria nodorum of 70%. Also, in the data set on aflatoxines production, the “% Inhibition of Aflatoxin at 50 μM” value was determined as 100%. For the same compound, in the data set with Fusarium graminearum, the “% Inhibition of fungal growth at 50 μM” value worked out at 94%.

Take `CN(C[Si](C)(C)c1ccccc1)C(=O)c1c(C(F)F)nn(C)c1F` [Example 230]: the logP in data set [1] is recorded as 3.23. Also, the Efficacy came to 100% with Alternaria solani; 100% in the data set with Pyrenophora teres; 100% in the data set on Septoria tritici; 100% in data set [2]; 83% in [3]; 80% in the data set on Leptosphaeria nodorum. In addition, the Efficacy with Puccinia triticina is 95%. For the same compound, the “% Inhibition of Aflatoxin at 50 μM” value in the data set with aflatoxines production stood at 100%. In addition, the “% Inhibition of fungal growth at 50 μM” value with Fusarium graminearum is recorded as 100%.
